Results published in patent US10294229B2, “Heteroaryl substituted aminopyridine compounds” (BRISTOL-MYERS SQUIBB COMPANY, priority 2015, dated 2019).
Where a name gives a salt, the structure may show the parent alone.

What was measured:
IRAK4 = IRAK4 (Homo sapiens (Human), UniProt Q9NWZ3); test: IRAK4 Inhibition Assay; assay type: biochemical; conditions: ATP 500 μM; IRAK4 0.6 nM
Method in brief: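 Enzyme 0.6 nM, ATP 500 μM, FL-peptide 1.5 μM, DMSO 1.6%; HEPES pH 7.2/MgCl2/Brij 35/DTT buffer. RT, 60 min, EDTA stop. Mobility-shift product/substrate ratio; % inhib vs no-enzyme and vehicle controls.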

[1] = Caco-2 Permeability Assay; assay type: in vitro ADME; conditions: human, Caco-2, test compound 3 μM
Method in brief: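 Bidirectional permeability measured over 2 h at 37° C, compound dosed at 3 μM in the donor compartment (apical for absorptive, basolateral for secretive) with plain buffer as receiver.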

[2] = system: Human whole blood stimulated with a TLR2 agonist (lipoteichoic acid), IL-6 levels; test: IRAK4 Whole Blood Assay; assay type: cell-based; conditions: Homo sapiens, lipoteichoic acid 10 μg/mL
Method in brief: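 ACD-A-anticoagulated human whole blood was preincubated with compounds for 60 min at 37 °C under 5% CO2. It was then stimulated with 10 μg/mL lipoteichoic acid (final) in RPMI for 5 h. IL-6 in plasma supernatants was measured by flow cytometry bead assay.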

IRAK4, sequence (Q9NWZ3 whole entry, species assumed): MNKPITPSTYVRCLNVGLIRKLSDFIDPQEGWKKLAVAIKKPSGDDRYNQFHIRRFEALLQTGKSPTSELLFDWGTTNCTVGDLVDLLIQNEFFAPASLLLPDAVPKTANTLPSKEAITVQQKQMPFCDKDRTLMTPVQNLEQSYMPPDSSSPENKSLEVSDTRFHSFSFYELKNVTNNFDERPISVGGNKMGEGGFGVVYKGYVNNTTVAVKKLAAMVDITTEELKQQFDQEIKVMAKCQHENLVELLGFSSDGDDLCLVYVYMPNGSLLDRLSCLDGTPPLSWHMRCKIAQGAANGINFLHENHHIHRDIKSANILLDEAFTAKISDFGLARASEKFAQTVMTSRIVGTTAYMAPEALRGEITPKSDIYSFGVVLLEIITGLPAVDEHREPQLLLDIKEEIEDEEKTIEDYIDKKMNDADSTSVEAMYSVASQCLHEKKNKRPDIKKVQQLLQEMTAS

| SMILES | IC50 (IRAK4) | Papp at 2 h, 3 µM [1] | EC50 [2] |
| --- | --- | --- | --- |
| CC(=O)N1CCC(n2cc(-c3cnc(-n4ncc5cc(C#N)cnc54)cc3NC(C)C)nn2)CC1 [Example 159, 1-(5-(1-(1-acetylpiperidin-4-yl)-1H-1,2,3-triazol-4-yl)-4-(isopropylamino)pyridin-2-yl)-1H-pyrazolo[3,4-b]pyridine-5-carbonitrile] | 4 nM | < 1.5 ×10⁻⁶ cm/s | 130 nM |
| CC(=O)N1CCCC(n2cc(-c3cnc(-n4ncc5cc(C#N)cnc54)cc3NC(C)C)nn2)C1 (stereo not drawn) [Example 160, 1-(5-(1-(1-acetylpiperidin-3-yl)-1H-1,2,3-triazol-4-yl)-4-(isopropylamino)pyridin-2-yl)-1H-pyrazolo[3,4-b]pyridine-5-carbonitrile] | 1 nM | 1.8 ×10⁻⁶ cm/s | 290 nM |
| CC(=O)N1CC(n2cc(-c3cnc(-n4ccc5cc(C#N)cnc54)cc3NC(C)C)nn2)C1 [Example 162, 1-(5-(1-(1-acetylazetidin-3-yl)-1H-1,2,3-triazol-4-yl)-4-(isopropylamino)pyridin-2-yl)-1H-pyrrolo[2,3-b]pyridine-5-carbonitrile, TFA] | 4 nM | 17.1 ×10⁻⁶ cm/s | 440 nM |
| CC(C)Nc1cc(-n2ccc3cc(C#N)cnc32)ncc1-c1cn(CCN2CCOCC2)nn1 [Example 163, 1-(4-(isopropylamino)-5-(1-(2-morpholinoethyl)-1H-1,2,3-triazol-4-yl)pyridin-2-yl)-1H-pyrrolo[2,3-b]pyridine-5-carbonitrile, 2TFA] | 2 nM | 19.5 ×10⁻⁶ cm/s | 600 nM |
| CC(=O)Cn1cc(-c2cnc(-n3ncc4cc(C#N)cnc43)cc2NC(C)C)nn1 [Example 170, 1-(4-(isopropylamino)-5-(1-(2-oxopropyl)-1H-1,2,3-triazol-4-yl)pyridin-2-yl)-1H-pyrazolo[3,4-b]pyridine-5-carbonitrile] | 2 nM | 4.5 ×10⁻⁶ cm/s | 430 nM |
| CC(=O)N1CC[C@H](n2cc(-c3cnc(-n4ncc5cc(C#N)cnc54)cc3NC(C)C)nn2)[C@H](O)C1 [Example 178, 1-(5-(1-((3R,4S)-1-acetyl-3-hydroxypiperidin-4-yl)-1H-1,2,3-triazol-4-yl)-4-(isopropylamino)pyridin-2-yl)-1H-pyrazolo[3,4-b]pyridine-5-carbonitrile] | 6 nM | < 1.5 ×10⁻⁶ cm/s | 530 nM |
| CC(C)Nc1cc(-n2ncc3cc(C#N)cnc32)ncc1-c1cn([C@H]2CCN(C(=O)C(C)(C)C)C[C@H]2O)nn1 [Example 179, 1-(5-(1-((3R,4S)-3-hydroxy-1-pivaloylpiperidin-4-yl)-1H-1,2,3-triazol-4-yl)-4-(isopropylamino)pyridin-2-yl)-1H-pyrazolo[3,4-b]pyridine-5-carbonitrile] | 7 nM | 1.8 ×10⁻⁶ cm/s | 680 nM |
| CCOC(=O)N1CC[C@H](n2cc(-c3cnc(-n4ncc5cc(C#N)cnc54)cc3NC(C)C)nn2)[C@H](O)C1 [Example 180, (3R,4S)-ethyl 4-(4-(6-(5-cyano-1H-pyrazolo[3,4-b]pyridin-1-yl)-4-(isopropylamino)pyridin-3-yl)-1H-1,2,3-triazol-1-yl)-3-hydroxypiperidine-1-carboxylate] | 11 nM | 3.2 ×10⁻⁶ cm/s | 2140 nM |
| CC(C)Nc1cc(-n2ncc3cc(C#N)cnc32)ncc1-c1cn([C@H]2CCN(S(C)(=O)=O)C[C@H]2O)nn1 [Example 181, 1-(5-(1-((3R,4S)-3-hydroxy-1-(methylsulfonyl)piperidin-4-yl)-1H-1,2,3-triazol-4-yl)-4-(isopropylamino)pyridin-2-yl)-1H-pyrazolo[3,4-b]pyridine-5-carbonitrile] | 7 nM | < 1.5 ×10⁻⁶ cm/s | 400 nM |
| CC(C)Nc1cc(-n2ncc3cc(C#N)cnc32)ncc1-c1cn([C@@H]2CCN(S(C)(=O)=O)C[C@@H]2O)nn1 [Example 188, 1-(5-(1-((3S,4R)-3-hydroxy-1-(methylsulfonyl)piperidin-4-yl)-1H-1,2,3-triazol-4-yl)-4-(isopropylamino)pyridin-2-yl)-1H-pyrazolo[3,4-b]pyridine-5-carbonitrile] | 18 nM | < 1.5 ×10⁻⁶ cm/s | 110 nM |
| CC(=O)N1CC[C@@H](n2cc(-c3cnc(-n4ncc5cc(C#N)cnc54)cc3NC(C)C)nn2)[C@@H](O)C1 [Example 191, 1-(5-(1-((3S,4R)-1-acetyl-3-hydroxypiperidin-4-yl)-1H-1,2,3-triazol-4-yl)-4-(isopropylamino)pyridin-2-yl)-1H-pyrazolo[3,4-b]pyridine-5-carbonitrile] | 16 nM | < 1.5 ×10⁻⁶ cm/s | 390 nM |
| CC(C)Nc1cc(-n2ncc3cc(C#N)cnc32)ncc1-c1cn(CC(=O)N2CCNCC2)nn1 [Example 192, 1-(4-(isopropylamino)-5-(1-(2-oxo-2-(piperazin-1-yl)ethyl)-1H-1,2,3-triazol-4-yl)pyridin-2-yl)-1H-pyrazolo[3,4-b]pyridine-5-carbonitrile] | 3 nM | < 1.5 ×10⁻⁶ cm/s | 150 nM |
| CC(C)Nc1cc(-n2ncc3cc(C#N)cnc32)ncc1-c1cn(C2CCNCC2)nn1 [Example 195, 1-(4-(isopropylamino)-5-(1-(piperidin-4-yl)-1H-1,2,3-triazol-4-yl)pyridin-2-yl)-1H-pyrazolo [3,4-b]pyridine-5-carbonitrile] | 2 nM | < 1.5 ×10⁻⁶ cm/s | 450 nM |
| CC(C)Nc1cc(-n2ncc3cc(C#N)cnc32)ncc1-c1cn(C2CCN(S(C)(=O)=O)CC2)nn1 [Example 196, 1-(4-(isopropylamino)-5-(1-(1-(methylsulfonyl)piperidin-4-yl)-1H-1,2,3-triazol-4-yl)pyridin-2-yl)-1H-pyrazolo[3,4-b]pyridine-5-carbonitrile] | 4 nM | 4.7 ×10⁻⁶ cm/s | 1210 nM |
| CC(C)Nc1cc(-n2ncc3cc(C#N)cnc32)ncc1-c1cn(C(C)C)nn1 [Example 213, 1-(5-(1-isopropyl-1H-1,2,3-triazol-4-yl)-4-(isopropylamino)pyridin-2-yl)-1H-pyrazolo[3,4-b]pyridine-5-carbonitrile] | 5 nM | 19.3 ×10⁻⁶ cm/s | 1750 nM |
| CC(C)Nc1cc(-n2ncc3cc(C#N)cnc32)ncc1-c1cn(C2CCOC2)nn1 (stereo not drawn) [Example 214, 1-(4-(isopropylamino)-5-(1-(tetrahydrofuran-3-yl)-1H-1,2,3-triazol-4-yl)pyridin-2-yl)-1H-pyrazolo[3,4-b]pyridine-5-carbonitrile] | 7 nM | 13.6 ×10⁻⁶ cm/s | 920 nM |
| CC(C)Nc1cc(-n2ncc3cc(C#N)cnc32)ncc1-c1cn([C@H]2CCCC[C@H]2O)nn1 [Example 216, 1-(5-(1-((1S,2R)-2-hydroxycyclohexyl)-1H-1,2,3-triazol-4-yl)-4-(isopropylamino)pyridin-2-yl)-1H-pyrazolo[3,4-b]pyridine-5-carbonitrile] | 2 nM | 7.3 ×10⁻⁶ cm/s | 1650 nM |
| CCCn1cc(-c2cnc(-n3ncc4cc(Cl)cnc43)cc2NC(C)C)nn1 [Example 218, 2-(5-chloro-1H-pyrazolo[3,4-b]pyridin-1-yl)-N-isopropyl-5-(1-propyl-1H-1,2,3-triazol-4-yl)pyridin-4-amine] | 9 nM | 12.5 ×10⁻⁶ cm/s | 2090 nM |
| CCCn1cnc(-c2cnc(-n3ncc4cc(C#N)cnc43)cc2NC(C)C)c1 [Example 219] | 10 nM | 31.8 ×10⁻⁶ cm/s | 1480 nM |
| CC(C)Nc1cc(-n2ncc3cc(C#N)cnc32)ncc1-c1cn(CCC(C)(C)O)cn1 [Example 240, 1-(5-(1-(3-hydroxy-3-methylbutyl)-1H-imidazol-4-yl)-4-(isopropylamino)pyridin-2-yl)-1H-pyrazolo[3,4-b]pyridine-5-carbonitrile] | 3 nM | 5.7 ×10⁻⁶ cm/s | 740 nM |
| CCCc1cn(-c2cnc(-n3ncc4cc(C#N)cnc43)cc2NC(C)C)nn1 [Example 263, 1-(4-(isopropylamino)-5-(4-propyl-1H-1,2,3-triazol-1-yl)pyridin-2-yl)-1H-pyrazolo[3,4-b]pyridine-5-carbonitrile] | 15 nM | 7.8 ×10⁻⁶ cm/s | 330 nM |
| CC(O)Cc1cn(-c2cnc(-n3ncc4cc(C#N)cnc43)cc2NCC(C)(C)O)nn1 (stereo not drawn) [Example 264, 1-(4-((2-hydroxy-2-methylpropyl)amino)-5-(4-(2-hydroxypropyl)-1H-1,2,3-triazol-1-yl)pyridin-2-yl)-1H-pyrazolo[3,4-b]pyridine-5-carbonitrile] | 8 nM | 22.5 ×10⁻⁶ cm/s | 330 nM |
| CCCc1cn(-c2cnc(-n3ncc4cc(C#N)cnc43)cc2Nc2cnn(CC(F)F)c2)nn1 [Example 269, 1-(4-((1-(2,2-difluoroethyl)-1H-pyrazol-4-yl)amino)-5-(4-propyl-1H-1,2,3-triazol-1-yl)pyridin-2-yl)-1H-pyrazolo[3,4-b]pyridine-5-carbonitrile] | 4 nM | 3.8 ×10⁻⁶ cm/s | 390 nM |
| CCCc1cn(-c2cnc(-n3ncc4cncnc43)cc2Nc2cnn(CC(F)F)c2)nn1 [Example 270, N-(1-(2,2-difluoroethyl)-1H-pyrazol-4-yl)-5-(4-propyl-1H-1,2,3-triazol-1-yl)-2-(1H-pyrazolo[3,4-d]pyrimidin-1-yl)pyridin-4-amine] | 6 nM | 37.2 ×10⁻⁶ cm/s | 1170 nM |
